Experimental data as given in PMC4822888, “Subtype-Selective Small Molecule Inhibitors Reveal a Fundamental Role for Nav1.7 in Nociceptor Electrogenesis, Axonal Conduction and Presynaptic Release” (PLoS ONE, 2016).

Columns and labels:
L-type calcium channels = test: Blockade of L-type calcium channels
Cyclooxegenase 2 = Cyclooxegenase 2 (Homo sapiens, UniProt P35354); test: Off target activity panel; type: biochemical
Sigma receptor = test: Off target activity panel; type: binding; settings: 10 µM
Urotensin receptor = Urotensin receptor (Homo sapiens, UniProt Q9UKP6); test: Off target activity panel; type: binding; settings: read-out: Inhibition at test concentration (%)
Neurokinin NK2 receptor = Neurokinin NK2 receptor (Homo sapiens, UniProt P21452); test: Off target activity panel; type: binding; settings: read-out: Inhibition at test concentration (%)
[1] = tested on: Calcium channel L-type (diltiazem site); test: Off target activity panel; type: binding; settings: 10 µM
Choline transporter = Choline transporter (Homo sapiens, UniProt Q9GZV3); test: Off target activity panel; type: binding; settings: read-out: Inhibition at test concentration (%)
[2] = biological target: Melanin-concentrating hormone receptor 1 (Homo sapiens, UniProt Q99705); test: Off target activity panel; type: binding; settings: read-out: Inhibition at test concentration (%)
[3] = biological target: Cholycystokinin 1 (CCKA) receptor (Homo sapiens, UniProt P32238); test: Off target activity panel; type: binding; settings: read-out: Inhibition at test concentration (%)
PDE5 = PDE5 (Homo sapiens, UniProt O76074); test: Off target activity panel; type: biochemical; settings: read-out: Inhibition at test concentration (%)
Muscarinic M2 receptor = Muscarinic M2 receptor (Homo sapiens, UniProt P08172); test: Off target activity panel; type: binding; settings: read-out: Inhibition at test concentration (%)
Adenosine A1 receptor = Adenosine A1 receptor (Homo sapiens, UniProt P30542); test: Off target activity panel; type: binding; settings: read-out: Inhibition at test concentration (%)
AMPA receptor = test: Off target activity panel; type: binding; settings: 10 µM
Dopamine D2 receptor = Dopamine D2 receptor (Homo sapiens, UniProt P14416); test: Off target activity panel; type: binding; settings: read-out: Inhibition at test concentration (%)
Adenosine A2a receptor = Adenosine A2a receptor (Homo sapiens, UniProt P29274); test: Off target activity panel; type: binding; settings: read-out: Inhibition at test concentration (%)
Serotonin 5-HT7 = Serotonin 5-HT7 (Homo sapiens, UniProt P34969); test: Off target activity panel; type: binding; settings: read-out: Inhibition at test concentration (%)
Histamine H2 receptor = Histamine H2 receptor (Homo sapiens, UniProt P25021); test: Off target activity panel; type: binding; settings: read-out: Inhibition at test concentration (%)
KvLQT = KvLQT (Homo sapiens, UniProt P51787); test: Blockade of KvLQT potassium channels
Histamine H3 receptor = Histamine H3 receptor (Homo sapiens, UniProt Q9Y5N1); test: Off target activity panel; type: binding; settings: read-out: Inhibition at test concentration (%)
Dopamine D3 receptor = Dopamine D3 receptor (Homo sapiens, UniProt P35462); test: Off target activity panel; type: binding; settings: read-out: Inhibition at test concentration (%)
[4] = tested on: Muscle-type nicotinic receptor; test: Off target activity panel; type: binding; settings: 10 µM
dogNav1.7 = dogNav1.7 (Canis lupus familiaris, UniProt A0A8I3P4Z8); test: cell-based; type: cell-based, dog
[5] = tested on: NMDA receptor (phencyclidine site); test: Off target activity panel; type: binding; settings: 10 µM
Serotonin 5-HT2A = Serotonin 5-HT2A (Homo sapiens, UniProt P28223); test: Off target activity panel; type: binding; settings: read-out: Inhibition at test concentration (%)
PPAR gamma [6] = biological target: T1, PPAR gamma (Homo sapiens, UniProt P37231); test: Off target activity panel; type: binding
T1 sequence (P37231 1-505): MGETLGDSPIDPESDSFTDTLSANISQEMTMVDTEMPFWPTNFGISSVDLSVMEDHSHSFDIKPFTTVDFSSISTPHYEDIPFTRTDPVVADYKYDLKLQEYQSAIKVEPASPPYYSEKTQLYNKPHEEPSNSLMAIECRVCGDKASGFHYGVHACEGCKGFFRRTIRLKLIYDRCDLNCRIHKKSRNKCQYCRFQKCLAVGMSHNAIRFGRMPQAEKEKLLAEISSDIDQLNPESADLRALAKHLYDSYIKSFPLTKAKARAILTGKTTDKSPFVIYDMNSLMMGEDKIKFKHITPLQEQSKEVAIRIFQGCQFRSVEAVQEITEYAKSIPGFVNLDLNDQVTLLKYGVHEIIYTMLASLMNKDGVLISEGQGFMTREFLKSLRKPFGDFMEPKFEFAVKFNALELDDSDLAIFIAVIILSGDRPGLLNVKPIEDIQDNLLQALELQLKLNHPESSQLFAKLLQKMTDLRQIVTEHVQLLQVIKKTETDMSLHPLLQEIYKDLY

PDE4 rolipram binding = test: Off target activity panel; settings: 10 µM
Abl kinase receptor = Abl kinase receptor (Homo sapiens, UniProt P00519); test: Off target activity panel; type: biochemical; settings: read-out: Inhibition at test concentration (%)
PDE3B = PDE3B (Homo sapiens, UniProt Q13370); test: Off target activity panel; type: biochemical; settings: read-out: Inhibition at test concentration (%)
PPAR gamma [7] = biological target: T1, PPAR gamma; test: Off target panel, functional activity (agonist/antagonist); type: biochemical; settings: at 10 µM
cynNav1.7 = cynNav1.7 (Macaca fascicularis, UniProt A0A2K5WIF4); test: cell-based; type: cell-based, cynomologus macaque
[8] = biological target: Beta 1 adrenergic receptor (Homo sapiens, UniProt P08588); test: Off target activity panel; type: binding; settings: read-out: Inhibition at test concentration (%)
PDE11 = PDE11 (Homo sapiens, UniProt Q9HCR9); test: Off target activity panel; type: biochemical; settings: read-out: Inhibition at test concentration (%)
[9] = biological target: Beta 2 adrenergic receptor (Homo sapiens, UniProt P07550); test: Off target activity panel; type: binding; settings: read-out: Inhibition at test concentration (%)
PDE2A = PDE2A (Homo sapiens, UniProt O00408); test: Off target activity panel; type: biochemical; settings: read-out: Inhibition at test concentration (%)
[10] = biological target: Adrenergic alpha 2B receptor (Homo sapiens, UniProt P18089); test: Off target activity panel; type: binding; settings: read-out: Inhibition at test concentration (%)
GABA transporter = test: Off target activity panel; type: binding; settings: 10 µM
Serotonin 5-HT1A = Serotonin 5-HT1A (Homo sapiens, UniProt P08908); test: Off target activity panel; type: binding; settings: read-out: Inhibition at test concentration (%)
Dopamine transporter = Dopamine transporter (Homo sapiens, UniProt Q01959); test: Off target activity panel; type: binding; settings: read-out: Inhibition at test concentration (%)
[11] = 10 µM, read-out: Inhibition at test concentration (%)

## Nc1[nH]ncc1-c1cc(Cl)ccc1Oc1cc(F)c(S(=O)(=O)Nc2cscn2)cc1Cl [PF-05089771, 4-[2-(5-amino-1H-pyrazol-4-yl)-4-chlorophenoxy]-5-chloro-2-fluoro-N-(1,3-thiazol-4-yl)benzenesulfonamide]
L-type calcium channels
  IC50: 10 µM
Cyclooxegenase 2; [11]
  inhibition at 10 µM: 72%
Cyclooxegenase 2; Cyclooxegenase 2
  Ki: 5.4 µM
Sigma receptor
  Inhibition at test concentration (%): -8%
Urotensin receptor
  inhibition at 10 µM: 32%
Neurokinin NK2 receptor
  inhibition at 10 µM: -10%
[1]
  Inhibition at test concentration (%): 16%
Choline transporter
  inhibition at 10 µM: 18%
[2]
  inhibition at 10 µM: -7%
[3]
  inhibition at 10 µM: 17%
PDE5
  inhibition at 10 µM: 7%
Muscarinic M2 receptor
  inhibition at 10 µM: 3%
Adenosine A1 receptor
  inhibition at 10 µM: 15%
AMPA receptor
  Inhibition at test concentration (%): -13%
Dopamine D2 receptor
  inhibition at 10 µM: 10%
Adenosine A2a receptor
  inhibition at 10 µM: 15%
Serotonin 5-HT7
  inhibition at 10 µM: -7%
Histamine H2 receptor
  inhibition at 10 µM: -3%
KvLQT
  IC50: 10 µM
Histamine H3 receptor
  inhibition at 10 µM: 10%
Dopamine D3 receptor
  inhibition at 10 µM: 16%
[4]
  Inhibition at test concentration (%): 2%
dogNav1.7
  IC50: 0.013 µM
dogNav1.7; dogNav1.7
  Slope: 0.9
[5]
  Inhibition at test concentration (%): -3%
Serotonin 5-HT2A
  inhibition at 10 µM: -2%
PPAR gamma [6]; [11]
  inhibition at 10 µM: 60%
PPAR gamma [6]; PPAR gamma
  Ki: 2.8 µM
PDE4 rolipram binding
  Inhibition at test concentration (%): 10%
Abl kinase receptor
  inhibition at 10 µM: 9%
PDE3B
  inhibition at 10 µM: 4%
PPAR gamma [7]
  Functional activity: no agonist or antagonist activity at 10 µM
cynNav1.7
  IC50: 0.012 µM
cynNav1.7; cynNav1.7
  Slope: 1.1
[8]
  inhibition at 10 µM: 12%
PDE11
  inhibition at 10 µM: 6%
[9]
  inhibition at 10 µM: 4%
PDE2A
  inhibition at 10 µM: 9%
[10]
  inhibition at 10 µM: 24%
GABA transporter
  Inhibition at test concentration (%): 1%
Serotonin 5-HT1A
  inhibition at 10 µM: 13%
Dopamine transporter
  inhibition at 10 µM: 18%
